Results: patent US20250059156A1, “THERAPEUTIC ALKALOID COMPOUNDS” (Sensorium Therapeutics, Inc., priority 2022, published 2025)

Tests used:
SERT = SERT (Homo sapiens (Human), UniProt P31645); experiment: SERT inhibition assay (Neurotransmitter Transporter Fluorescence assay); assay type: cell-based; conditions: class symbols; legend in nM/micromolar
Procedure: SERT inhibition was measured using a Neruotransmitter Transportation Fluorescence assay. Briefly, stable 5HHH cells were prepared in a 384 microwell plate. Compounds were prepared by in assay buffer (20 mM HEPES, 0.1% BSA). The compounds were added to the plated cells and incubated for 30 minutes at 37° C. 25 μL of dye solution (Molecular Devices Neurotransmitter Transporter Uptake Assay Kit) was added per well and incubated for 30 minutes at 37° C. The plates were then read on a plate reader.

PDE4B2 = PDE4B2 (Homo sapiens (Human), UniProt Q07343); experiment: PDE4 percent inhibition assay; assay type: biochemical; conditions: for inhibition at 10 µM: read-out: PDE4 Isoform % Inhibition @ 10 μM PDE4B2
Procedure: (§1) PDE4 assay kit (BPS Bioscience, San Diego, CA), as described below.
(§2) • 1) Dilute 20 μM FAM-Cyclic-3′, 5′-AMP stock 100-fold with PDE buffer to make a 200 nM solution. Make only sufficient quantity needed for the assay; store remaining 20 μM stock solution in aliquots at −20° C. • 2) Add 25 μl of FAM-Cyclic-3′,5′-AMP (200 nM) to each well designated “Positive Control”, “Test Inhibitor”, and “Substrate Control”. • 3) Add 20 μl of PDE assay buffer to each well designated “Substrate Control” and 45 μl of PDE assay buffer to each well designated “Blank”. • 4) Add 5 μl of inhibitor solution to each well designated “Test Inhibitor”. For the wells labeled “Positive Control”, “Substrate Control” and “Blank”, add 5 μl of the same solution without inhibitor (inhibitor buffer). • 5) Thaw PDE on ice. Upon first thaw, briefly spin tube containing enzyme to recover the full contents of the tube. • 6) Dilute PDE4 in PDE buffer to 7.5 pg/μl (0.15 ng/reaction)*. Initiate reaction by adding 20 μl of PDE4 (7.5 pg/μl) to the wells designated “Positive Control” and “Test Inhibitor.” • 7) Incubate at room temperature for 1 hour.
(§3) • 1) Mix binding agent thoroughly and dilute binding agent 1:100 with binding agent diluent. • 2) Add 100 μl diluted binding agent to each microwell. Incubate at room temperature for 1 hour with slow shaking. • 3) Read the fluorescent polarization of the sample in a microtiter-plate reader equipped for the measurement of fluorescence polarization, capable of excitation at wavelengths ranging from 485±5 nm and detection of emitted light ranging from 528±10 nm. Blank value is subtracted from all other values.
(§4) 100 µM dilutions of the test compounds were prepared in assay buffer (10% DMSO concentration) and 5 μl of the dilution was added to a 50 μl reaction so that the final concentration of DMSO is 1% in all of reactions.
(§5) The enzymatic reactions were conducted at room temperature for 60 minutes in a 50 μl mixture containing PDE assay buffer, 100 nM FAM-cAMP, a PDE enzyme and the test compound.
(§6) After the enzymatic reaction, 100 Is of a binding solution (1:100 dilution of the binding agent with the binding agent diluent) was added to each reaction and the reaction was performed at room temperature for 60 minutes.
(§7) Fluorescence intensity was measured at an excitation of 485 nm and an emission of 528 nm using a Tecan Infinite M1000 microplate reader.

PDE4D2 = PDE4D2 (Homo sapiens (Human), UniProt Q08499); experiment: PDE4 percent inhibition assay; assay type: biochemical; conditions: for inhibition at 10 µM: read-out: PDE4 Isoform % Inhibition @ 10 μM PDE4D2
Procedure: as §1, §2, §3, §4, §5, §6, §7

PDE4A1A = PDE4A1A (Homo sapiens (Human), UniProt P27815); experiment: PDE4 percent inhibition assay; assay type: biochemical; conditions: for inhibition at 10 µM: read-out: PDE4 Isoform % Inhibition @ 10 μM PDE4A1A
Procedure: as §1, §2, §3, §4, §5, §6, §7

PDE4C1 = PDE4C1 (Homo sapiens (Human), UniProt Q08493); experiment: PDE4 percent inhibition assay; assay type: biochemical; conditions: for inhibition at 10 µM: read-out: PDE4 Isoform % Inhibition @ 10 μM PDE4C1
Procedure: as §1, §2, §3, §4, §5, §6, §7

Sequence of PDE4D2 (Q08499 303-809, change not shown): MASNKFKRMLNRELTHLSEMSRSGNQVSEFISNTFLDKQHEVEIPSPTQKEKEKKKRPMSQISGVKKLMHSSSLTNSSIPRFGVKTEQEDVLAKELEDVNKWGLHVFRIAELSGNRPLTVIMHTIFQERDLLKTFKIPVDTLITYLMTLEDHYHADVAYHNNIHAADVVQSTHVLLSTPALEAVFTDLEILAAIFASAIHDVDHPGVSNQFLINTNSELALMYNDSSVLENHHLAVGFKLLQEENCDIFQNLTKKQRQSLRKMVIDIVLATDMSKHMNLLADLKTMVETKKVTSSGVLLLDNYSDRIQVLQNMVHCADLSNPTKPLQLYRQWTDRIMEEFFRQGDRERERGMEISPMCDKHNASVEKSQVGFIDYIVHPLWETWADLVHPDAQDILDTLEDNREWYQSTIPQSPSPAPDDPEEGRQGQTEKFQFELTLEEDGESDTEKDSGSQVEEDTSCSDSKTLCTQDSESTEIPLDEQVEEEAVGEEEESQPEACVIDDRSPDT
Sequence of PDE4C1 (Q08493 whole entry, canonical isoform): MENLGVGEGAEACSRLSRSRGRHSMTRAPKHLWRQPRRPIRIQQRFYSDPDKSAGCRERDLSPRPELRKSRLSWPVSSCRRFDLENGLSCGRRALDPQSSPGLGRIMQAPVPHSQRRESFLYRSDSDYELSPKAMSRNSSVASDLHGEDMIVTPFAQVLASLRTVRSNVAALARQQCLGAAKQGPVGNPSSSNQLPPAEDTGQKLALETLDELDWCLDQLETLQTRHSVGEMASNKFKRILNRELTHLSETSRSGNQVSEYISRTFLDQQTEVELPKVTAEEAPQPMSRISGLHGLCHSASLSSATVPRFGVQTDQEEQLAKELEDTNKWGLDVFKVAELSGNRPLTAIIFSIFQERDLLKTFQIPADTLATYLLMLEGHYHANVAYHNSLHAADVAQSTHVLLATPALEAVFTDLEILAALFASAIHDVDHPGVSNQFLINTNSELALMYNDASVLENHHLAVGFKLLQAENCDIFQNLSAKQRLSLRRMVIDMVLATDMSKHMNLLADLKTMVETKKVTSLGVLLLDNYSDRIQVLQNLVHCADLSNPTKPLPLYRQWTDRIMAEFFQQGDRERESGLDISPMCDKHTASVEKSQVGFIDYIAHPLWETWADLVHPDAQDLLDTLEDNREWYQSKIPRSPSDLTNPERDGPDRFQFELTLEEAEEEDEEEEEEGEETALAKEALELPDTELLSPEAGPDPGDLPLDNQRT
Sequence of PDE4A1A (P27815 other isoform, or with tags, fused parts or gaps): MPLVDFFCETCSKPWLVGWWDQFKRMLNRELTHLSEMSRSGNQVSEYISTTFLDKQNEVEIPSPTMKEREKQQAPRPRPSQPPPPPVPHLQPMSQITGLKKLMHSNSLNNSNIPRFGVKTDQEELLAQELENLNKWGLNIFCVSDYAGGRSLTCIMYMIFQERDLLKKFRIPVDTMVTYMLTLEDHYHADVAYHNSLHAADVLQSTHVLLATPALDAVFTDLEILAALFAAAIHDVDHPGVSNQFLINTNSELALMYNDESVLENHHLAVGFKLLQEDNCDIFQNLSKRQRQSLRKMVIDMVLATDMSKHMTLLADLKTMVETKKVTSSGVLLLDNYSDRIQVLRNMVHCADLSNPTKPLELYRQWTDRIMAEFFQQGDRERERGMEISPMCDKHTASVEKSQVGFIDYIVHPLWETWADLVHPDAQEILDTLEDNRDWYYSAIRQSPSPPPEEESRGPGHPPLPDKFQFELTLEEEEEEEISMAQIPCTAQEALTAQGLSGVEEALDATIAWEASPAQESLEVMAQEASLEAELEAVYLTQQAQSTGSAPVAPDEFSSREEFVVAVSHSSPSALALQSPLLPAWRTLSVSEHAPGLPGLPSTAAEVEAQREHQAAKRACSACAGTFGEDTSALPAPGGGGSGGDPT
Sequence of SERT (P31645 whole entry, species assumed): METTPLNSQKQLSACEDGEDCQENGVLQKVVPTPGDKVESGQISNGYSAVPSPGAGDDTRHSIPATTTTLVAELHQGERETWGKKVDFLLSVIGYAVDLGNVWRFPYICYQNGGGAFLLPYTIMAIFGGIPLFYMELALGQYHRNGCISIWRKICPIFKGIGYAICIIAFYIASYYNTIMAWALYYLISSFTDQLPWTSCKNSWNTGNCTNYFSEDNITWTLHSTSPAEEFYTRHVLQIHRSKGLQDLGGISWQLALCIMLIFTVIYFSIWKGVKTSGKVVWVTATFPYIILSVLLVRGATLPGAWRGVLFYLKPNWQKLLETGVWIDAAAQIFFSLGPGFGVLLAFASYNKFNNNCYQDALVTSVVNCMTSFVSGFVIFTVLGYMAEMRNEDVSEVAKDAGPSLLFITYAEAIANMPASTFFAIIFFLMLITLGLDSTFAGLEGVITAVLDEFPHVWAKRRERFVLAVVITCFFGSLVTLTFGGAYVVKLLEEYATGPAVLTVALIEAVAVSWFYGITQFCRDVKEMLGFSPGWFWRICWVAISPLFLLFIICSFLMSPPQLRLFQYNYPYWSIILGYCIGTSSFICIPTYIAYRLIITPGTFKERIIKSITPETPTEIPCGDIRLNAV
Sequence of PDE4B2 (Q07343 other isoform, or with tags, fused parts or gaps): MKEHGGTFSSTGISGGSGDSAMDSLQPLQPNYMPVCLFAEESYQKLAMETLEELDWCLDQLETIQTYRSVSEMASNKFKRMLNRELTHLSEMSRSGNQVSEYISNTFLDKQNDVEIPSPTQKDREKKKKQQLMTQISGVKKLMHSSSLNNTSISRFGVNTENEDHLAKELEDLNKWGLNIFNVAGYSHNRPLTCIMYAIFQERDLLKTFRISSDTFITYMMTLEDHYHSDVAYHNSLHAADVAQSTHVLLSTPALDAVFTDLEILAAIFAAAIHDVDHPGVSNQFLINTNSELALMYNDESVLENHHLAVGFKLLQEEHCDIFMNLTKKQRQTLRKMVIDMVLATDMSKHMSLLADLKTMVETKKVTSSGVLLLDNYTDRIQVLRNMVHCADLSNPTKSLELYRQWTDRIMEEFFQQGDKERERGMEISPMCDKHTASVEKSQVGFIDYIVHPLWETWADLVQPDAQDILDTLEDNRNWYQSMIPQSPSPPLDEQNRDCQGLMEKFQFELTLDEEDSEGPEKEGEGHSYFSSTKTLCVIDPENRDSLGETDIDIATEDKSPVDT

Structure (SMILES) | IC50 (SERT) [nM] | inhibition at 10 µM (PDE4B2) [%] | inhibition at 10 µM (PDE4D2) [%] | inhibition at 10 µM (PDE4A1A) [%] | inhibition at 10 µM (PDE4C1) [%] | PDE4 Isoform % Inhibition @ 10 μM PDE4B2 (PDE4B2; 10 μM) | PDE4 Isoform % Inhibition @ 10 μM PDE4D2 (PDE4D2; 10 μM) | PDE4 Isoform % Inhibition @ 10 μM PDE4A1A (PDE4A1A; 10 μM) | PDE4 Isoform % Inhibition @ 10 μM PDE4C1 (PDE4C1; 10 μM)
COc1ccc([C@]23CCN(C)[C@H]2CC(=O)C=C3c2ccccc2)cc1OC (racemic) [Compound 201, rac-(3aS,7aS)-3a-(3,4-dimethoxyphenyl)-1-methyl-4-phenyl-1,2,3,3a,7,7a-hexahydro-6H-indol-6-one] | > 1000 | ≥ 70 | ≥ 70 | ≥ 70 | 30 to 50 |  |  |  | 
COc1ccc([C@@]23CCN(C)[C@H]2CC(=O)[C@@H]2O[C@@H]23)cc1OC (racemic) [Compound 208, rac-(1aR,3aS,6aS,6bR)-6a-(3,4-dimethoxyphenyl)-4-methyloctahydro-2H-oxireno[2,3-e]indol-2-one] | 50 to 100 | ≥ 70 | ≥ 70 | ≥ 70 | ≥ 70 |  |  |  | 
COc1ccc([C@@]23CC[C@H](n4ccc(C(F)(F)F)n4)C[C@@H]2N(C)CC3)cc1OC [Compound 101, (3aS,6S,7aS)-3a-(3,4-dimethoxyphenyl)-1-methyl-6-(3-(trifluoromethyl)-1H-pyrazol-1-yl)octahydro-1H-indole] |  | < 30 | < 30 | < 30 | < 30 |  |  |  | 
COc1ccc([C@@]23CC[C@H](n4cccn4)C[C@@H]2N(C)CC3)cc1OC [Compound 102, (3aS,6S,7aS)-3a-(3,4-dimethoxyphenyl)-1-methyl-6-(1H-pyrazol-1-yl)octahydro-1H-indole] | < 50 | < 30 | < 30 | < 30 | < 30 |  |  |  | 
COc1ccc([C@@]23CC[C@@H](n4cccn4)C[C@@H]2N(C)CC3)cc1OC [Compound 103, (3aS,6R,7aS)-3a-(3,4-dimethoxyphenyl)-1-methyl-6-(1H-pyrazol-1-yl)octahydro-1H-indole] | < 50 | < 30 | < 30 | < 30 | < 30 |  |  |  | 
COc1ccc([C@@]23CC[C@H](N4CCC4)C[C@@H]2N(C)CC3)cc1OC [Compound 104, (3aS,6S,7aS)-6-(azetidin-1-yl)-3a-(3,4-dimethoxyphenyl)-1-methyloctahydro-1H-indole] | 100 to 500 | < 30 | < 30 | < 30 | < 30 |  |  |  | 
COc1ccc([C@@]23CC[C@@H](N4CCCC4)C[C@@H]2N(C)CC3)cc1OC [Compound 105, (3aS,6R,7aS)-3a-(3,4-dimethoxyphenyl)-1-methyl-6-(pyrrolidin-1-yl)octahydro-1H-indole] | 100 to 500 | < 30 | < 30 | < 30 | < 30 |  |  |  | 
COc1ccc([C@@]23CC[C@H](N4CCCC4)C[C@@H]2N(C)CC3)cc1OC [Compound 106, (3aS,6S,7aS)-3a-(3,4-dimethoxyphenyl)-1-methyl-6-(pyrrolidin-1-yl)octahydro-1H-indole] | 500 to 1000 | < 30 | < 30 | < 30 | < 30 |  |  |  | 
COc1ccc([C@@]23CC[C@H](N4CCCCC4)C[C@@H]2N(C)CC3)cc1OC [Compound 107, (3aS,6S,7aS)-3a-(3,4-dimethoxyphenyl)-1-methyl-6-(piperidin-1-yl)octahydro-1H-indole] | > 1000 | < 30 | < 30 | < 30 | < 30 |  |  |  | 
COc1ccc([C@@]23CC[C@H](N4CCOCC4)C[C@@H]2N(C)CC3)cc1OC [Compound 108, 4-((3aS,6S,7aS)-3a-(3,4-dimethoxyphenyl)-1-methyloctahydro-1H-indol-6-yl)morpholine] | 100 to 500 | < 30 | < 30 | < 30 | < 30 |  |  |  | 
COc1ccc([C@@]23CC[C@@H](N4CCOCC4)C[C@@H]2N(C)CC3)cc1OC [Compound 109, 4-((3aS,6R,7aS)-3a-(3,4-dimethoxyphenyl)-1-methyloctahydro-1H-indol-6-yl)morpholine] | 100 to 500 | < 30 | < 30 | < 30 | < 30 |  |  |  | 
COc1ccc([C@@]23CC[C@@H](N4CCCC4=O)C[C@@H]2N(C)CC3)cc1OC [Compound 110, 1-((3aS,6R,7aS)-3a-(3,4-dimethoxyphenyl)-1-methyloctahydro-1H-indol-6-yl)pyrrolidin-2-one] | < 50 | < 30 | < 30 | < 30 | < 30 |  |  |  | 
COc1ccc([C@@]23CC[C@H](N4CCCC4=O)C[C@@H]2N(C)CC3)cc1OC [Compound 111, 1-((3aS,6S,7aS)-3a-(3,4-dimethoxyphenyl)-1-methyloctahydro-1H-indol-6-yl)pyrrolidin-2-one] | < 50 | < 30 | < 30 | < 30 | < 30 |  |  |  | 
COc1ccc([C@@]23CC[C@@H](n4ccc(C(F)(F)F)n4)C[C@@H]2N(C)CC3)cc1OC [Compound 115, (3aS,6R,7aS)-3a-(3,4-dimethoxyphenyl)-1-methyl-6-(3-(trifluoromethyl)-1H-pyrazol-1-yl)octahydro-1H-indole] | < 50 | < 30 | < 30 | < 30 | < 30 |  |  |  | 
COc1ccc([C@@]23CC[C@@H](N4CCC4)C[C@@H]2N(C)CC3)cc1OC [Compound 116, (3aS,6R,7aS)-6-(azetidin-1-yl)-3a-(3,4-dimethoxyphenyl)-1-methyloctahydro-1H-indole] | 500 to 1000 | < 30 | < 30 | < 30 | < 30 |  |  |  | 
COc1ccc([C@]23CCN(C)[C@H]2CC2(CCCO2)CC3)cc1OC (stereo partly drawn) [Compound 117, (3a'S,7a'S)-3a′-(3,4-dimethoxyphenyl)-1′-methyldecahydro-3H-spiro[furan-2,6′-indole]] | < 50 | 30 to 50 | 30 to 50 | 30 to 50 | < 30 |  |  |  | 
COc1ccc([C@]23CCN(C)[C@H]2CC2(CCO2)CC3)cc1OC (stereo partly drawn) [Compound 118, (3aS,7aS)-3a-(3,4-dimethoxyphenyl)-1-methyloctahydrospiro[indole-6,2′-oxetane]] | < 50 | < 30 | 30 to 50 | 30 to 50 | 30 to 50 |  |  |  | 
COc1ccc([C@]23CC[C@@H](n4ccc(C(F)(F)F)n4)C[C@H]2N(C)CC3)cc1OC [Compound 121] | 100 to 500 |  |  |  |  | B (B if the percent inhibition is 50-70%) | B (B if the percent inhibition is 50-70%) | D (D if the percent inhibition is less than 30%) | D (D if the percent inhibition is less than 30%)
CCN1CC[C@]2(c3ccc(OC)c(OC)c3)CCC(=O)C[C@H]12 [Compound 223] | > 1000 |  |  |  |  |  |  |  | 
CCN1CC[C@@]2(c3ccc(OC)c(OC)c3)CCC(=O)C[C@@H]12 [Compound 224] | < 50 |  |  |  |  |  |  |  | 
COc1ccc([C@@]23CCC(=O)C[C@@H]2N(C(C)C)CC3)cc1OC [Compound 226] | 500 to 1000 |  |  |  |  |  |  |  | 
COc1ccc([C@]23CCC(=O)C[C@H]2N(C(C)C)CC3)cc1OC [Compound 227] | 500 to 1000 |  |  |  |  |  |  |  | 
